Reference: patent US9062284B2, “Uses and detection of herbicide resistance genes for resistance to aryloxyalkanoate herbicides” (Dow ArgoSciences LLC, priority 2007, dated 2015)

Tests used:
[1] = tested on: PAT/Cry1F-transformed Arabidopsis (auxin-sensitive control); assay: Herbicide response of PAT/Cry1F transformed control Arabidopsis; type: in vivo, Arabidopsis thaliana; conditions: for % Injury 20-40% (individuals) / % Injury <20% (individuals) / % Injury >40% (individuals) / % Injury Ave: 14 DAT
From the text: (§1) T1 plants were then randomly assigned to various rates of 2,4-D. For Arabidopsis, 50 g ae/ha 2,4-D is an effective dose to distinguish sensitive plants from ones with meaningful levels of resistance. Elevated rates were also applied to determine relative levels of resistance (280, 560, 1120, or 2240 g ae/ha). Tables 11 and 12 show comparisons drawn to an aryloxyalkanoate herbicide resistance gene (AAD-12 (v1)) previously described in PCT/US2006/042133.
(§2) All auxin herbicide applications were made using the DeVilbiss sprayer as described above to apply 703 L/ha spray volume (0.4 ml solution/3-inch pot) or applied by track sprayer in a 187 L/ha spray volume. 2,4-D used was either technical grade (Sigma, St. Louis, Mo.) dissolved in DMSO and diluted in water (<1% DMSO final concentration) or the commercial dimethylamine salt formulation (456 g ae/L, NuFarm, St Joseph, Mo.). Dichlorprop used was commercial grade formulated as potassium salt of R-dichlorprop (600 g ai/L, AH Marks). As herbicide rates increased beyond 800 g ae/ha, the pH of the spray solution became exceedingly acidic, burning the leaves of young, tender Arabidopsis plants and complicating evaluation of the primary effects of the herbicides.
(§3) The first Arabidopsis transformations were conducted using AAD-13 (v1) (plant optimized gene). T1 transformants were first selected from the background of untransformed seed using a glufosinate selection scheme. Over 160,000 T1 seed were screened and 238 glufosinate resistant plants were identified (PAT gene), equating to a transformation/selection frequency of 0.15% which lies in the normal range of selection frequency of constructs where PAT+Liberty are used for selection. T1 plants selected above were subsequently transplanted to individual pots and sprayed with various rates of commercial aryloxyalkanoate herbicides. Table 11 compares the response of AAD-13 (v1) and control genes to impart 2,4-D resistance to Arabidopsis T1 transformants. Response is presented in terms of % visual injury 2 WAT. […] An arithmetic mean and standard deviation is presented for each treatment. The range in individual response is also indicated in the last column for each rate and transformation. PAT/Cry1F-transformed Arabidopsis served as an auxin-sensitive transformed control. The AAD-13 (v1) gene imparted herbicide resistance to individual T1 Arabidopsis plants. Within a given treatment, the level of plant response varied greatly and can be attributed to the fact each plant represents an independent transformation event. Of important note, at each 2,4-D rate tested, there were individuals that were unaffected while some were severely affected. […] At high rates the spray solution becomes highly acidic unless buffered therefore some of the injury may be attributed to the acidity of the spray solution. Arabidopsis grown mostly in the growth chamber has a very thin cuticle and severe burning effects can complicate testing at these elevated rates. Nonetheless, many individuals have survived 2,240 g ae/ha 2,4-D with little or no injury.
(§4) The ability of AAD-13 (v1) to provide resistance to other aryloxyalkanoate auxin herbicides in transgenic Arabidopsis was determined by foliar application of various substrates. T2 generation Arabidopsis seed was stratified, and sown into selection trays much like that of Arabidopsis (Example 6.4). A transformed-control line containing PAT and the insect resistance gene Cry1F was planted in a similar manner. Seedlings were transferred to individual 3-inch pots in the greenhouse. All plants were sprayed with the use of a track sprayer set at 187 L/ha. The plants were sprayed with a range of pyridyloxyacetate herbicides: 200-800 g ae/ha triclopyr (Garlon 3A, Dow AgroSciences) and 200-800 g ae/ha fluoroxypyr (Starane, Dow AgroSciences). […]

[2] = tested on: KY160 untransformed tobacco; assay: Herbicide response of untransformed KY160 tobacco; type: in vivo, Nicotiana tabacum; conditions: for % Injury 20-40% (individuals) / % Injury <20% (individuals) / % Injury >40% (individuals) / % Injury Ave: 2 WAT; for plant response to foliar applied auxinic herbicides (injury): 14 days after application
From the text: Surviving T1 plants were then randomly assigned to various rates of 2,4-D. For tobacco, 140 g ae/ha 2,4-D is an effective dose to distinguish sensitive plants from ones with meaningful levels of resistance. Elevated rates were also applied to determine relative levels of resistance (140, 560, or 2240 g ae/ha).
All auxin herbicide applications were applied by track sprayer in a 187 L/ha spray volume. 2,4-D used was the commercial dimethylamine salt formulation (456 g ae/L, NuFarm, St Joseph, Mo.). Some T1 individuals were subjected to alternative commercial herbicides instead of a phenoxy auxin. One point of interest was determining whether the pyridyloxyacetate auxin herbicides, triclopyr and fluoroxypyr, could be effectively degraded in planta. Herbicides were applied to T1 plants with use of a track sprayer in a 187 L/ha spray volume.
T1 transformants were first selected from the background of untransformed plants using a 2,4-D selection scheme. Table 15 compares the response of AAD-13 (v1) and control genes to impart 2,4-D resistance to tobacco T1 transformants. Response is presented in terms of % visual injury 2 WAT. […] An arithmetic mean and standard deviation is presented for each treatment. The range in individual response is also indicated in the last column for each rate and transformation. KY160 untransformed tobacco served as an auxin-sensitive control. The AAD-13 (v1) gene imparted herbicide resistance to individual T1 tobacco plants.
The ability of AAD-13 (v1) to provide resistance to other aryloxyalkanoate auxin herbicides in transgenic tobacco was determined by foliar application of various substrates. Extra T1 generation plants following the T1 progeny testing were sprayed with the use of a track sprayer set at 187 L/ha. The plants were sprayed with a range of pyridyloxyacetate herbicides: 140-1120 g ae/ha triclopyr (Garlon 3A, Dow AgroSciences) and 280-1120 g ae/ha fluoroxypyr (Starane, Dow AgroSciences). All applications were formulated in water. Each treatment was replicated 3 times. Plants were evaluated at 3 and 14 days after treatment.

[3] = tested on: Homozygous AAD-12 (v1) gene T4 Arabidopsis plants; assay: Herbicide response of homozygous AAD-12 (v1) T4 Arabidopsis; type: in vivo, Arabidopsis thaliana; conditions: for % Injury 20-40% (individuals) / % Injury <20% (individuals) / % Injury >40% (individuals) / % Injury Ave: 14 DAT
From the text: as §1, §2, §3, §4

## CNC.O=C(O)COc1ccc(Cl)cc1Cl [2,4-D DMA]
[1]; 280 g ae/ha postemergence
  % Injury 20-40% (individuals): 0
  % Injury <20% (individuals): 0
  % Injury >40% (individuals): 20
  % Injury Ave: 100%
[1]; 560 g ae/ha postemergence
  % Injury 20-40% (individuals): 0
  % Injury <20% (individuals): 0
  % Injury >40% (individuals): 20
  % Injury Ave: 100%
[1]; 1120 g ae/ha postemergence
  % Injury 20-40% (individuals): 0
  % Injury <20% (individuals): 0
  % Injury >40% (individuals): 20
  % Injury Ave: 100%
[1]; 2240 g ae/ha postemergence
  % Injury 20-40% (individuals): 0
  % Injury <20% (individuals): 0
  % Injury >40% (individuals): 20
  % Injury Ave: 100%
[2]; 140 g ae/ha postemergence
  % Injury 20-40% (individuals): 0
  % Injury <20% (individuals): 0
  % Injury >40% (individuals): 3
  % Injury Ave: 80.0%
[2]; 560 g ae/ha postemergence
  % Injury 20-40% (individuals): 0
  % Injury <20% (individuals): 0
  % Injury >40% (individuals): 3
  % Injury Ave: 88.0%
[2]; 2240 g ae/ha postemergence
  % Injury 20-40% (individuals): 0
  % Injury <20% (individuals): 0
  % Injury >40% (individuals): 3
  % Injury Ave: 92.0%
[3]; 280 g ae/ha postemergence
  % Injury 20-40% (individuals): 0
  % Injury <20% (individuals): 20
  % Injury >40% (individuals): 0
  % Injury Ave: 0%
[3]; 560 g ae/ha postemergence
  % Injury 20-40% (individuals): 0
  % Injury <20% (individuals): 20
  % Injury >40% (individuals): 0
  % Injury Ave: 1%
[3]; 1120 g ae/ha postemergence
  % Injury 20-40% (individuals): 0
  % Injury <20% (individuals): 20
  % Injury >40% (individuals): 0
  % Injury Ave: 2%
[3]; 2240 g ae/ha postemergence
  % Injury 20-40% (individuals): 3
  % Injury <20% (individuals): 16
  % Injury >40% (individuals): 1
  % Injury Ave: 13%

## C[C@@H](Oc1ccc(Cl)cc1Cl)C(=O)O [R-dichloroprop, R-dichlorprop]
[3]; 800 g ae/ha postemergence
  % Injury 20-40% (individuals): 0
  % Injury <20% (individuals): 0
  % Injury >40% (individuals): 20
  % Injury Ave: 100%

## Nc1c(Cl)c(F)nc(OCC(=O)O)c1Cl [fluoroxypyr]
[1]; 200 g ae/ha foliar-applied
  Ave. % Injury 14DAT: 100%
[1]; 400 g ae/ha foliar-applied
  Ave. % Injury 14DAT: 100%
[1]; 800 g ae/ha foliar-applied
  Ave. % Injury 14DAT: 100%
[2]; 280 g ae/ha
  plant response to foliar applied auxinic herbicides (injury): 100.0
[2]; 560 g ae/ha
  plant response to foliar applied auxinic herbicides (injury): 100.0
[2]; 1120 g ae/ha
  plant response to foliar applied auxinic herbicides (injury): 100.0
[3]; 200 g ae/ha foliar-applied
  Ave. % Injury 14DAT: 48%
[3]; 400 g ae/ha foliar-applied
  Ave. % Injury 14DAT: 55%
[3]; 800 g ae/ha foliar-applied
  Ave. % Injury 14DAT: 60%

## O=C(O)COc1nc(Cl)c(Cl)cc1Cl [triclopyr]
[1]; 200 g ae/ha foliar-applied
  Ave. % Injury 14DAT: 100%
[1]; 400 g ae/ha foliar-applied
  Ave. % Injury 14DAT: 100%
[1]; 800 g ae/ha foliar-applied
  Ave. % Injury 14DAT: 100%
[2]; 280 g ae/ha
  plant response to foliar applied auxinic herbicides (injury): 82.0
[2]; 560 g ae/ha
  plant response to foliar applied auxinic herbicides (injury): 88.0
[2]; 1120 g ae/ha
  plant response to foliar applied auxinic herbicides (injury): 92.0
[3]; 200 g ae/ha foliar-applied
  Ave. % Injury 14DAT: 25%
[3]; 400 g ae/ha foliar-applied
  Ave. % Injury 14DAT: 33%
[3]; 800 g ae/ha foliar-applied
  Ave. % Injury 14DAT: 79%
